Test [1] is described as follows: Microsomal conversion of myristicin, human liver microsomes. It is filed as in vitro ADME. As to the method: First, it was determined which organs are involved in the biotransformation of myristicin in rat and human. For this purpose, liver, kidney, lung, and small intestine microsomes from male Sprague–Dawley rat and pooled gender human were used. Incubations were performed by adding myristicin to incubation mixtures containing 1 mg/mL of the microsomal protein preparations and 3 mM NADPH in 0.2 M Tris–HCl (pH 7.4). After 1 min of pre-incubation at 37 °C, myristicin (final concentration, 1000 μM) was added from a 100 times concentrated stock solution in DMSO so that the final DMSO content was 1 % (v/v). Incubations were carried out for 30 min after which the reactions were terminated by adding 25 µl (0.25 times the incubation volume) of ice-cold ACN. Samples were centrifuged for 5 min at 13,000×g, and the supernatant was stored at −20 °C until UPLC analysis. As metabolism of myristicin was observed only in incubations with liver microsomes for male rats and pooled gender human, the determination of kinetic constants for the formation of microsomal metabolites was performed only for the liver fractions. Incubations to determine kinetic constants were performed following the conditions described above using final concentrations of myristicin from 25 to 1000 μM for rat and human liver. In all incubations, the final concentration of DMSO, in which myristicin was dissolved, was kept at 1 % (v/v). The formation of different microsomal metabolites was linear with time and microsomal protein concentration under the conditions described. Blank incubations were performed in the absence of the cofactor NADPH. All incubations were performed in triplicate.
Secondary metabolism of the relevant 1′-hydroxy metabolite of myristicin was taken into account by determining the kinetic constants for its conversion in (a) glucuronidation, (b) sulfation, and (c) oxidation, again under conditions that allowed adequate definition of kinetic constants and with <10 % substrate conversion. Incubation samples were subjected to UPLC analysis that was performed as described previously (Punt et al. [2008]). Identification was achieved by comparing the UV spectra of the formed metabolites to the spectra of the synthesized 1′-hydroxymyristicin and 1′-oxomyristicin reference standards. Quantification of all formed metabolites was done by comparing the peak areas to those of calibration curves of the corresponding reference compounds, determined using UPLC with photodiode array detection (UPLC-PDA). The UPLC system was composed of a Waters (Waters, Milford, MA) Acquity solvent manager, sample manager, and photodiode array detector, equipped with Water Acquity UPLC BEH C18 column.
The gradient for analysis of microsomal metabolites was performed with 100 % ACN and ultrapure water containing 0.1 % (v/v) TFA. The flow rate was 0.6 ml/min. The gradient started at 10 % ACN, increased to 50 % ACN over 4 min, increased to 80 % over 0.5 min, followed by decrease to 10 % ACN over 0.5 min, and finally kept at 10 % for 1 min.
In general terms: Liver microsomes are a subcellular fraction often used to study metabolism.

Test [2] in a line: Oxidation of 1′-hydroxymyristicin to 1′-oxomyristicin, rat liver microsomes. It is filed as in vitro ADME. The note with it: rat vs human. Here is the method:
The kinetic constants for the enzymatic conversion of 1′-hydroxymyristicin to 1′-oxomyristicin were determined using incubation mixtures containing (final concentrations) 3 mM NAD^+, 2 mM GSH, and 1 mg/ml rat or human liver microsomes in 0.2 M Tris–HCl (pH 7.4). GSH was added to the incubation mixtures to trap the reactive 1′-oxo metabolite formed after oxidation of 1′-hydroxymyristicin. The level of GSH in the incubations was optimized in a previous study to obtain maximum scavenging of 1′-oxoestragole (Punt et al. [2009]). To this end, incubations were performed in the presence of increasing concentrations of GSH, ranging from 2 to 10 mM. […] Kinetic constants for this reaction in rat and human liver were derived by performing incubations with NAD^+ as a cofactor, given that in rat and human liver, NAD^+ is mainly present in an oxidized form with levels of NAD^+ being much higher than those of NADH. In a previous study, it was shown that the highest level of 1′-hydroxy alkenylbenzene oxidation occurs in incubations with microsomes in the presence of NAD^+ as cofactor. […] The enzyme responsible for the oxidation may be 17β-hydroxysteroid dehydrogenase type 2 (17β-HSD2) (Punt et al. [2010]). Prior to the addition of 1′-hydroxymyristicin at final concentrations ranging between 10 and 4000 μM to the incubation mixture from 100 times concentrated stock solutions in DMSO, samples were pre-incubated for 1 min at 37 °C. Reactions were terminated after 10 min of incubation at 37 °C by adding 25 μl (0.25 times the incubation volume) of ice-cold ACN. The formation of the GSH conjugate of 1′-oxomyristicin (GS-1′-oxomyristicin) was linear with time and microsomal protein concentration under the experimental conditions used. Blank incubations were performed without the cofactor NAD^+. Incubations were performed in triplicate. All samples were centrifuged for 5 min at 13,000×g, and the supernatant was stored at −20 °C until UPLC analysis.
Quantification of GS-1′-oxomyristicin was based on a calibration curve of the GSH adduct of the synthesized 1′-oxymyristicin made as previously described (van den Berg et al. [2012]; Punt et al. [2009]; Martati et al. [2011]; Al-Subeihi et al. [2011]). In short, a 60 μM concentration of the synthetic standard of 1′-oxomyristicin, dissolved in ACN, was incubated with different concentrations of GSH (i.e., 0–20 μM) in 0.2 M Tris–HCl (pH 7.4) for 6 h at 37 °C, resulting in full conversion of the GSH to GS-1′-oxymyristicin. Quantification was done by comparing the peak areas of the formed GS-1′-oxo metabolite in the incubation mixtures with peak areas of the GS-1′-oxymyristicin calibration curve thus obtained at a wavelength of 212 nm. The gradient for analysis of the metabolite consisted of a mixture of ACN and ultrapure water containing 0.1 % (v/v) TFA. The flow rate was 0.6 ml/min, The gradient started with 10 % ACN, increased to 30 % ACN over 2.5 min, after which ACN was increased to 80 % over 0.5 min, kept at 80 % for 0.5 min, followed by a decrease to 10 % over 0.5 min, and finally kept at 10 % for 0.5 min.

Each structure is given as a SMILES string.

As to `C=CC(O)c1cc(OC)c2c(c1)OCO2` (centres unmarked) [1′-Hydroxymyristicin, 1′-hydroxymyristicin], in test [1] (formation of the metabolite from myristicin, NADPH, mean of three ± SD), the Vmax is 0.17 ± 0.03 nmol min^−1 (mg microsomal or S9 protein)^−1. Besides, the “In vitro catalytic efficiency” value in test [1] (formation of the metabolite from myristicin, Vmax/Km × 1000) is 0.726 μl min^−1 (mg microsomal or S9 protein)^−1. Further, in test [1] (from myristicin, microsomal protein yield 32 mg/g liver), the “Scaled Vmax, in vivo” value is 0.326 μmol/h/g tissue. Besides, the “In vivo catalytic efficiency” value in test [1] (from myristicin, scaled Vmax/Km) is 0.0014 ml/h/g tissue. Further, the “oxidation, fold lower affinity in rat than in human” value in test [2] came to 1.8 fold.

The values are drawn from paper PMC5306082, “Physiologically based kinetic modeling of the bioactivation of myristicin” (Archives of Toxicology, 2016).
